Results published in patent US9777002B2, “Inhibitors of the renal outer medullary potassium channel” (Merck Sharp & Dohme Corp., priority 2012, dated 2017).

The compounds below were run against T1, hROMK (hKir1.1) (Homo sapiens, UniProt P48048) (assay: Thallium Flux Assay). Settings: HEK293 cells stably expressing hROMK (hKir1.1).
T1 construct: expressed in transfected cells
T1 sequence (P48048 1-391): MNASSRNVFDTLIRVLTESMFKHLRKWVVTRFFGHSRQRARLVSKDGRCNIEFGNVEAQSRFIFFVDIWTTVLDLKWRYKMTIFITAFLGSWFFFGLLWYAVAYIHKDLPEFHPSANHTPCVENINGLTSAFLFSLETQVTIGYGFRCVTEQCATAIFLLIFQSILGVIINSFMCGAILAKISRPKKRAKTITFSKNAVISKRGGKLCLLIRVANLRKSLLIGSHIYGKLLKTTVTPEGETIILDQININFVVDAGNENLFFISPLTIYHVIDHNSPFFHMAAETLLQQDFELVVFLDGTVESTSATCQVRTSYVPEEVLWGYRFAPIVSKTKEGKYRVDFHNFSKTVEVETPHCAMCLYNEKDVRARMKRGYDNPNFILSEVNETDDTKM
Type: cell-based
Procedure: Cell Culture Conditions—HEK293 cells stably expressing hROMK (hKir1.1) were grown at 37° C. in a 10% CO2 humidified incubator in complete growth media: Dulbecco's Modified Eagle Medium supplemented with non-essential amino acids, Penicillin/Streptomycin/Glutamine, G418 and FBS. At >80% confluency, aspirate the media from the flask and rinse with 10 mL Calcium/Magnesium-free PBS. Add 5 mL of 1× trypsin (prepared in Ca/Mg Free PBS) to T-225 flask and return flask to 37° C./CO2 incubator for 2-3 minutes. To dislodge the cell, gently bang the side of the flask with your hand. Triturate the cells completely and then transfer the cells to 25 mL complete media. Centrifuge at 1,500 rpm for 6 min followed by resuspension in complete growth media and determine cell concentration. For typical re-seeding, 4E6 cells/T-225 flask will attain >80% confluency in 4 days. Under ideal growth conditions and appropriate tissue culture practices, this cell line is stable for 40-45 passages.
FluxOR Kit Components (Invitrogen F10017)
• FluxOR™ Reagent (Component A) • FluxOR™ Assay Buffer (Component B)—10× Concentrate • PowerLoad™ Concentrate (Component C)—100× Concentrate • Probenecid (Component D)—Lyophilized sample is kept at −20° C. Water soluble, 100× after solubilization in 1 mL water. Store at 4° C. • FluxOR™ Chloride-free Buffer (Component E)—5× Concentrate • Potassium sulfate (K2SO4) Concentrate (Component F)—125 mM in water. Store at 4° C. • Thallium sulfate (Tl2SO4) Concentrate (Component G)—50 mM in water. Store at 4° C. • DMSO (dimethyl sulfoxide, Component H)—1 mL (100%) Reagent Preparation: FluxOR Working Solutions • 1000× FluxOR™ Reagent: Reconstitute a vial of component A in 100 μl DMSO; Mix well; Store 10 μl aliquots at −20° C. • 1× FluxOR™ Assay Buffer: Dilute Component B 10-fold with water; Adjust pH to 7.4 with Hepes/NaOH; Filter and store at 4° C. • Probenecid/Assay Buffer: 100 mL of 1× FluxOR™ Assay Buffer; 1 mL of reconstituted component D; Store at 4° C. • Loading Buffer (per microplate): 10 μl 1000× FluxOR™ Reagent; 100 μl component C; 10 mL Probenecid/Assay Buffer • Compound Buffer (per microplate): 20 mL Probenecid/Assay Buffer; 0.3 mM ouabain (10 mM ouabain in water can be stored in amber bottle/aluminum foil at room temperature); Test compound • 1× FluxOR™ Chloride-Free Buffer: Prepare 1× working solution in water. Can be stored at room temperature • Stimulant Buffer (prepared at 5× final concentration in 1× FluxOR™Chloride-Free Buffer): 7.5 mM Thallium sulfate and 0.75 mM Potassium sulfate (to give a final assay concentration of 3 mM Thallium/0.3 mM Potassium). Store at 4° C. when not in use. If kept sterile, this solution is good for months.
Assay Protocol—The ROMK channel functional thallium flux assay is performed in 384 wells, using the FLIPR-Tetra instrument. HEK-hKir1.1 cells are seeded in Poly-D-Lysine microplates and kept in a 37° C.-10% CO2 incubator overnight. On the day of the experiment, the growth media is replaced with the FluxOR™ reagent loading buffer and incubated, protected from light, at ambient temperature (23-25° C.) for 90 min. The loading buffer is replaced with assay buffer± test compound followed by 30 min incubation at ambient temperature, where the Thallium/Potassium stimulant is added to the microplate.
• 1. Seed HEK-hKir1.1 cells (50 μl at 20,000 cells/well) in 384-well PDL coated Microplates • 2. Allow cells to adhere overnight in humidified 37° C./10% CO2 incubator • 3. Completely remove cell growth media from microplate and replace with 25 μl loading buffer • 4. Incubate Microplate at room temperature, protected form light, for 90 min • 5. Remove loading buffer and replace with 25 μl 1× Assay Buffer±test compound. • 6. Incubate microplate at room temperature, protected from light, for 30 min • 7. At FLIPR-Tetra 384: Add stimulant (Thallium/Potassium) solution to microplate and monitor fluorescence. Excitation=400 nm, Emission=460 & 580 nm. Collect data for ˜10 min. […]
Compound `Cc1c([C@@H](O)CN2CCC(NC(=O)c3ccc(-c4cc[nH]n4)cc3)CC2)ccc2c1COC2=O` [Example 39, (R)-N-(1-(2-Hydroxy-2-(4-methyl-1-oxo-1,3-dihydroisobenzofuran-5-yl)ethyl)piperidin-4-yl)-4-(1H-pyrazol-3-yl)benzamide] has an IC50 of 310 nM. `Cc1c(CCN2CCC(NC(=O)c3cc(C#N)cs3)CC2)ccc2c1COC2=O` [Example 32, 4-Cyano-N-(1-(2-(4-methyl-1-oxo-1,3-dihydroisobenzofuran-5-yl)ethyl)piperidin-4-yl)thiophene-2-carboxamide] was tested, and the IC50 was 480 nM. `Cc1c([C@@H](O)CN2CCC(C)(NC(=O)c3ccc4nonc4c3)CC2)ccc2c1COC2=O` [Example 77, (R)-N-(1-(2-Hydroxy-2-(4-methyl-1-oxo-1,3-dihydroisobenzofuran-5-yl)ethyl)-4-methylpiperidin-4-yl)benzo[c][1,2,5]oxadiazole-5-carboxamide] showed an IC50 of 530 nM. For `Cc1c([C@@H](O)CN2CCC(CNC(=O)c3ccc4nonc4c3)C2)ccc2c1COC2=O` (stereo partly drawn) [Example 89, N-((1-((R)-2-Hydroxy-2-(4-methyl-1-oxo-1,3-dihydroisobenzofuran-5-yl)ethyl)pyrrolidin-3-yl)methyl)benzo[c][1,2,5]oxadiazole-5-carboxamide], the IC50 was 260 nM. For `Cc1c(C(O)CN2CCC(NC(=O)c3ccc4c(c3)COC4=O)CC2)ccc2c1COC2=O` (centres unmarked) [Example 6, N-(1-(2-Hydroxy-2-(4-methyl-1-oxo-1,3-dihydroisobenzofuran-5-yl)ethyl)piperidin-4-yl)-1-oxo-1,3-dihydroisobenzofuran-5-carboxamide], the IC50 was 40 nM. In the case of `Cc1c([C@@H](O)CN2CC[C@H](NC(=O)c3ccc(C#N)cn3)[C@H](F)C2)ccc2c1COC2=O` (single isomer, unassigned) [43 B], the IC50 is reported as 180 nM. In the case of `Cc1cc(C(=O)NC2CCN(C[C@H](O)c3ccc4c(c3C)COC4=O)CC2)ccc1-n1cnnn1` [Example 78, (R)-N-(1-(2-Hydroxy-2-(4-methyl-1-oxo-1,3-dihydroisobenzofuran-5-yl)ethyl)piperidin-4-yl)-3-methyl-4-(1H-tetrazol-1-yl)benzamide], the IC50 is reported as 560 nM. For `Cc1nc(C(=O)NC2CCN(C[C@H](O)c3ccc4c(c3C)COC4=O)CC2)ccc1C#N` [Example 41, (R)-5-Cyano-N-(1-(2-hydroxy-2-(4-methyl-1-oxo-1,3-dihydroisobenzofuran-5-yl)ethyl)piperidin-4-yl)-6-methylpicolinamide], the IC50 was 70 nM. For `Cc1c([C@@H](O)CN2CCC(CNC(=O)c3ccc(-n4cnnn4)cn3)(c3ccccc3)C2)ccc2c1COC2=O` (stereo partly drawn) [Example 68, N-((1-((R)-2-Hydroxy-2-(4-methyl-1-oxo-1,3-dihydroisobenzofuran-5-yl)ethyl)-3-phenylpyrrolidin-3-yl)methyl)-5-(1H-tetrazol-1-yl)picolinamide], the IC50 was 630 nM. Compound `Cc1c([C@@H](O)CN2CCC(NC(=O)c3cnc(-n4cnnn4)cn3)CC2)ccc2c1COC2=O` [Example 64, (R)-N-(1-(2-Hydroxy-2-(4-methyl-1-oxo-1,3-dihydroisobenzofuran-5-yl)ethyl)piperidin-4-yl)-5-(1H-tetrazol-1-yl)pyrazine-2-carboxamide] has an IC50 of 470 nM. `Cc1c([C@@H](O)CN2CCC(C)(NC(=O)c3ccc(-n4cnnn4)nn3)CC2)ccc2c1COC2=O` [Example 71, (R)-N-(1-(2-Hydroxy-2-(4-methyl-1-oxo-1,3-dihydroisobenzofuran-5-yl)ethyl)-4-methylpiperidin-4-yl)-6-(1H-tetrazol-1-yl)pyridazine-3-carboxamide] showed an IC50 of 280 nM. Compound `Cc1c([C@@H](O)CN2CCC(CNC(=O)c3ccc(-n4cnnn4)cn3)C2)ccc2c1COC2=O` (stereo partly drawn) [Example 86, N-((1-((R)-2-Hydroxy-2-(4-methyl-1-oxo-1,3-dihydroisobenzofuran-5-yl)ethyl)pyrrolidin-3-yl)methyl)-5-(1H-tetrazol-1-yl)picolinamide] has an IC50 of 980 nM. `Cc1nc(C(=O)N[C@H]2CCN(C[C@H](O)c3ccc4c(c3C)COC4=O)C[C@H]2F)ccc1C#N` (single isomer, unassigned) [44 B] showed an IC50 of 260 nM. With `Cc1c([C@@H](O)CN2CCC(NC(=O)c3ccc(C#N)cn3)CC2)ccc2c1COC2=O` [Example 28, (R)-5-Cyano-N-(1-(2-hydroxy-2-(4-methyl-1-oxo-1,3-dihydroisobenzofuran-5-yl)ethyl)piperidin-4-yl)picolinamide] the IC50 was 30 nM. For `Cc1c([C@@H](O)CN2CCC(C)(CNC(=O)c3ccc(-n4cnnn4)cn3)C2)ccc2c1COC2=O` (single isomer, unassigned) [69 B], the IC50 was 490 nM. With `Cc1cc(F)c(C(=O)NC2CCN(CCc3ccc4c(c3C)COC4=O)CC2)cc1C#N` [Example 18, 5-Cyano-2-fluoro-4-methyl-N-(1-(2-(4-methyl-1-oxo-1,3-dihydroisobenzofuran-5-yl)ethyl)piperidin-4-yl)benzamide] the IC50 was 950 nM. `Cc1c([C@@H](O)CN2CCC(NC(=O)c3ccc(-n4cnnn4)nc3)CC2)ccc2c1COC2=O` [Example 49, (R)-N-(1-(2-Hydroxy-2-(4-methyl-1-oxo-1,3-dihydroisobenzofuran-5-yl)ethyl)piperidin-4-yl)-6-(1H-tetrazol-1-yl)nicotinamide] showed an IC50 of 150 nM. Work on `Cc1c([C@@H](O)CN2CC[C@H](NC(=O)c3ccc(-n4cnnn4)cn3)[C@H](F)C2)ccc2c1COC2=O` (single isomer, unassigned) [58 B] yielded an IC50 of 870 nM. Work on `Cc1c([C@@H](O)CN2CCC(NC(=O)c3ccc(-n4cccn4)nc3)CC2)ccc2c1COC2=O` [Example 73, (R)-N-(1-(2-Hydroxy-2-(4-methyl-1-oxo-1,3-dihydroisobenzofuran-5-yl)ethyl)piperidin-4-yl)-6-(1H-pyrazol-1-yl)nicotinamide] yielded an IC50 of 270 nM. Compound `Cc1c([C@@H](O)CN2CCC(NC(=O)c3ccc(C#N)nc3)C(F)C2)ccc2c1COC2=O` (single isomer, unassigned) [46 B] has an IC50 of 650 nM. Compound `Cc1cc(C(=O)NC2CCN(CCc3ccc4c(c3C)COC4=O)CC2)ncc1C#N` [Example 19, 5-Cyano-4-methyl-N-(1-(2-(4-methyl-1-oxo-1,3-dihydroisobenzofuran-5-yl)ethyl)piperidin-4-yl)picolinamide] has an IC50 of 50 nM. With `C[C@H]1Cc2cc(CCN3CCC(NC(=O)c4ccc5c(c4)COC5=O)CC3)ccc2C(=O)O1` [Example 4, (S)-N-(1-(2-(3-methyl-1-oxoisochroman-6-yl)ethyl)piperidin-4-yl)-1-oxo-1,3-dihydroisobenzofuran-5-carboxamide] the IC50 was 320 nM. For `Cc1c([C@@H](O)CN2C3CCC2CC(NC(=O)c2ccc(-n4cnnn4)nc2)C3)ccc2c1COC2=O` (stereo partly drawn) [Example 82, N-(8-((R)-2-Hydroxy-2-(4-methyl-1-oxo-1,3-dihydroisobenzofuran-5-yl)ethyl)-8-azabicyclo[3.2.1]octan-3-yl)-6-(1H-tetrazol-1-yl)nicotinamide], the IC50 was 250 nM.
